Laboratory results reported in patent US8420675B2, “Aminotetrahydroindazoloacetic acids” (Hoffmann-La Roche Inc., priority 2008, dated 2013).

The compounds below were run against T1, human CRTH2 (Homo sapiens, UniProt Q9Y5Y4) (assay: Human CRTH2 Receptor Binding Assay (whole cell, [3H]ramatroban competition)). Conditions: CHO-K1 cells expressing human CRTH2 and G-alpha16; 20 nM [3H]ramatroban; 1 hour, room temperature.
T1 construct: expressed in transfected cells
T1 sequence (Q9Y5Y4 1-395): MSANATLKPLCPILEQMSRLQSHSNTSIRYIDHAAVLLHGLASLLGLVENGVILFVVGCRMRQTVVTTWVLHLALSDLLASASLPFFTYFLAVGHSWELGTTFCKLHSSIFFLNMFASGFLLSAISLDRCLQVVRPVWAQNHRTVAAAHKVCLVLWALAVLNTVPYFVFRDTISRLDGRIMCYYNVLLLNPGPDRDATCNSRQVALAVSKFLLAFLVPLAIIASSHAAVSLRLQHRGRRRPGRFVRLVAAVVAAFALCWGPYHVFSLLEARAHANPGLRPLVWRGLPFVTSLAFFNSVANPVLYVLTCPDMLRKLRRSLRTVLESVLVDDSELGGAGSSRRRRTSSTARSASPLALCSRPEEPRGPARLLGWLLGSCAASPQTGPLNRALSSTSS
In short: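 CHO-K1 cells stably co-expressing human CRTH2 and G-alpha16, 1.5×10^5 per reaction, incubated 1 hour at room temperature with 20 nM [3H]ramatroban in PBS containing 10 mM MgCl2 and 0.06% BSA. Non-specific binding defined with 10 μM 15(R)-15-methyl PGD2. IC50 from 7 concentrations by 4-parameter logistic fit of specific binding inhibition.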

Compound | IC50 [nM]
CN([C@@H]1CCCc2c1cnn2CC(=O)O)S(=O)(=O)c1cnc(Oc2cccc(Cl)c2)c(Br)c1 [Example 6-8a, ((R)-4-{[5-Bromo-6-(3-chloro-phenoxy)-pyridine-3-sulfonyl]-methyl-amino}-4,5,6,7-tetrahydro-indazol-1-yl)-acetic acid] | 11.9
CN([C@@H]1CCCc2c1cnn2CC(=O)O)S(=O)(=O)c1cnc(Oc2ccc(F)cc2F)c(Br)c1 [Example 6-7a, ((R)-4-{[5-Bromo-6-(2,4-difluoro-phenoxy)-pyridine-3-sulfonyl]-methyl-amino}-4,5,6,7-tetrahydro-indazol-1-yl)-acetic acid] | 6.2
CN([C@@H]1CCCc2c1cnn2CC(=O)O)S(=O)(=O)c1ccc(Oc2ccc(Cl)cc2Cl)c(Cl)c1 [Example 9-6a, ((R)-4-{[3-Chloro-4-(2,4-dichloro-phenoxy)-benzenesulfonyl]-methyl-amino}-4,5,6,7-tetrahydro-indazol-1-yl)-acetic acid] | 21.7
CN([C@@H]1CCCc2c1cnn2CC(=O)O)S(=O)(=O)c1ccc(Oc2ccc(Cl)cc2)c(Cl)c1 [Example 9-3a, ((R)-4-{[3-Chloro-4-(4-chloro-phenoxy)-benzenesulfonyl]-methyl-amino}-4,5,6,7-tetrahydro-indazol-1-yl)-acetic acid] | 11.1
O=C(O)Cn1ncc2c1CCC[C@H]2NS(=O)(=O)c1ccc(Oc2ccccc2Cl)c(Cl)c1 [Example 5-1a, {(R)-4-[3-Chloro-4-[2-chloro-phenoxy)-benzenesulfonylamino]-4,5,6,7-tetrahydro-indazol-1-yl}-acetic acid] | 14.6
O=C(O)Cn1ncc2c1CCCC2NS(=O)(=O)c1ccc(Oc2ccc(Cl)cc2)cc1 (stereo not drawn) [Example 5-3a, {4-[4-(4-Chloro-phenoxy)-benzenesulfonylamino]-4,5,6,7-tetrahydro-indazol-1-yl}-acetic acid] | 60.6
CN([C@@H]1CCCc2c1cnn2CC(=O)O)S(=O)(=O)c1ccc(Oc2cc(F)ccc2F)c(Cl)c1 [Example 9-22a, ((R)-4-{[3-Chloro-4-(2,5-difluoro-phenoxy)-benzenesulfonyl]-methyl-amino}-4,5,6,7-tetrahydro-indazol-1-yl)-acetic acid] | 24.2
CN([C@@H]1CCCc2c1cnn2CC(=O)O)S(=O)(=O)c1cnc(Oc2ccc(C#N)cc2)c(Br)c1 [Example 6-14a, ((R)-4-{[5-Bromo-6-(4-cyano-phenoxy)-pyridine-3-sulfonyl]-methyl-amino}-4,5,6,7-tetrahydro-indazol-1-yl)-acetic acid] | 8.2
C[Si](C)(C)c1cccc(-c2ccc(S(=O)(=O)N[C@@H]3CCCc4c3cnn4CC(=O)O)cc2)c1 [Example 10-26a, [(R)-4-(3′-Trimethylsilanyl-biphenyl-4-sulfonylamino)-4,5,6,7-tetrahydro-indazol-1-yl]-acetic acid] | 2.1
CN([C@@H]1CCCc2c1cnn2CC(=O)O)S(=O)(=O)c1cnc(Oc2ccc(Cl)cc2)c(C2(C)CC2)c1 [Example 8-1a, ((R)-4-{[6-(4-Chloro-phenoxy)-5-(1-methyl-cyclopropyl)-pyridine-3-sulfonyl]-methyl-amino}-4,5,6,7-tetrahydro-indazol-1-yl)-acetic acid] | 14.5
CN([C@@H]1CCCc2c1cnn2CC(=O)O)S(=O)(=O)c1ccc(Oc2ccccc2)c(Cl)c1 [Example 9-13a, {(R)-4-[(3-Chloro-4-phenoxy-benzenesulfonyl)-methyl-amino]-4,5,6,7-tetrahydro-indazol-1-yl}-acetic acid] | 9.5
O=C(O)Cn1ncc2c1CCCC2NS(=O)(=O)c1cc(Oc2ccccc2)cc(C(F)(F)F)c1 (stereo not drawn) [Example 5-4a, [4-(3-Phenoxy-5-trifluoromethyl-benzenesulfonylamino)-4,5,6,7-tetrahydro-indazol-1-yl]-acetic acid] | 35.9
Cc1ccccc1Oc1ccc(S(=O)(=O)N(C)[C@@H]2CCCc3c2cnn3CC(=O)O)cc1Cl [Example 9-26a, {(R)-4-[(3-Chloro-4-o-tolyloxy-benzenesulfonyl)-methyl-amino]-4,5,6,7-tetrahydro-indazol-1-yl}-acetic acid] | 23.7
O=C(O)Cn1ncc2c1CCC[C@H]2NS(=O)(=O)c1cc(F)c(Oc2ccc(F)cc2)cc1Cl [Example 5-6a, {(R)-4-[2-Chloro-5-fluoro-4-(4-fluoro-phenoxy)-benzenesulfonylamino]-4,5,6,7-tetrahydro-indazol-1-yl}-acetic acid] | 52.9
CN([C@@H]1CCCc2c1cnn2CC(=O)O)S(=O)(=O)c1ccc(Oc2ccc(F)cc2)c(Cl)c1 [Example 9-14a, ((R)-4-{[3-Chloro-4-(4-fluoro-phenoxy)-benzenesulfonyl]-methyl-amino}-4,5,6,7-tetrahydro-indazol-1-yl)-acetic acid] | 4.4
COc1cc(F)ccc1Oc1ccc(S(=O)(=O)N(C)[C@@H]2CCCc3c2cnn3CC(=O)O)cc1Cl [Example 9-17a, ((R)-4-{[3-Chloro-4-(4-fluoro-2-methoxy-phenoxy)-benzenesulfonyl]-methyl-amino}-4,5,6,7-tetrahydro-indazol-1-yl)-acetic acid] | 12.9

The remaining lines, values ahead:

IC50 [nM] | Compound
188 | Cc1cc(C)cc(-c2ccc(S(=O)(=O)NC3CCCc4c3cnn4CC(=O)O)cc2)c1 (stereo not drawn) [Example 10-18a, [4-(3′,5′-Dimethyl-biphenyl-4-sulfonylamino)-4,5,6,7-tetrahydro-indazol-1-yl]-acetic acid]
5.1 | CC(C)c1cccc(-c2ccc(S(=O)(=O)N[C@@H]3CCCc4c3cnn4CC(=O)O)cc2)c1 [Example 10-27a, [(R)-4-(3′-Isopropyl-biphenyl-4-sulfonylamino)-4,5,6,7-tetrahydro-indazol-1-yl]-acetic acid]
14.8 | CN([C@@H]1CCCc2c1cnn2CC(=O)O)S(=O)(=O)c1ccc(Oc2ccccc2F)c(Cl)c1 [Example 9-37a, ((R)-4-{[3-Chloro-4-(2-fluoro-phenoxy)-benzenesulfonyl]-methyl-amino}-4,5,6,7-tetrahydro-indazol-1-yl)-acetic acid]
257 | O=C(O)Cn1ncc2c1CCCC2NS(=O)(=O)c1ccc(-c2ccccc2Cl)cc1 (stereo not drawn) [Example 10-4a, [4-(2′-Chloro-biphenyl-4-sulfonylamino)-4,5,6,7-tetrahydro-indazol-1-yl]-acetic acid]
7.3 | CN([C@@H]1CCCc2c1cnn2CC(=O)O)S(=O)(=O)c1ccc(-c2cccc(C(F)(F)F)c2)cc1 [Example 11-1a, {(R)-4-[Methyl-(3′-trifluoromethyl-biphenyl-4-sulfonyl)-amino]-4,5,6,7-tetrahydro-indazol-1-yl}-acetic acid]
10.4 | CN([C@@H]1CCCc2c1cnn2CC(=O)O)S(=O)(=O)c1cc(F)c(Oc2ccc(F)cc2)c(F)c1 [Example 9-39a, ((R)-4-{[3,5-Difluoro-4-(4-fluoro-phenoxy)-benzenesulfonyl]-methyl-amino}-4,5,6,7-tetrahydro-indazol-1-yl)-acetic acid]
7.8 | Cc1ccc(S(=O)(=O)c2cc(C(F)(F)F)cc(S(=O)(=O)N(C)[C@@H]3CCCc4c3cnn4CCC(=O)O)c2)cc1 [Example 13-6a, 3-((R)-4-{Methyl-[3-(toluene-4-sulfonyl)-5-trifluoromethyl-benzenesulfonyl]-amino}-4,5,6,7-tetrahydro-indazol-1-yl)-propionic acid]
215 | COc1ccc(-c2ccc(S(=O)(=O)NC3CCCc4c3cnn4CC(=O)O)cc2)cc1 (stereo not drawn) [Example 10-1a, [4-(4′-Methoxy-biphenyl-4-sulfonylamino)-4,5,6,7-tetrahydro-indazol-1-yl]-acetic acid]
2.5 | CN([C@@H]1CCCc2c1cnn2CCC(=O)O)S(=O)(=O)c1cc(C(F)(F)F)cc(S(=O)(=O)c2ccc(Cl)cc2)c1 [Example 13-4a, 3-((R)-4-{[3-(4-Chloro-benzenesulfonyl)-5-trifluoromethyl-benzenesulfonyl]-methyl-amino}-4,5,6,7-tetrahydro-indazol-1-yl)-propionic acid]
58.1 | O=C(O)Cn1ncc2c1CCCC2NS(=O)(=O)c1ccc(-c2cccc(OC(F)(F)F)c2)cc1 (stereo not drawn) [Example 10-14a, [4-(3′-Trifluoromethoxy-biphenyl-4-sulfonylamino)-4,5,6,7-tetrahydro-indazol-1-yl]-acetic acid]
7.6 | CN([C@@H]1CCCc2c1cnn2CC(=O)O)S(=O)(=O)c1ccc(Oc2ccc(F)cc2F)c(Cl)c1 [Example 9-32a, ((R)-4-{[3-Chloro-4-(2,4-difluoro-phenoxy)-benzenesulfonyl]-methyl-amino}-4,5,6,7-tetrahydro-indazol-1-yl)-acetic acid]
466 | O=C(O)Cn1ncc2c1CCCC2NS(=O)(=O)c1ccc(-c2ccc(F)c(Cl)c2)cc1 (stereo not drawn) [Example 10-15a, [4-(3′-Chloro-4′-fluoro-biphenyl-4-sulfonylamino)-4,5,6,7-tetrahydro-indazol-1-yl]-acetic acid]
370 | COc1cccc(-c2ccc(S(=O)(=O)NC3CCCc4c3cnn4CC(=O)O)cc2)c1 (stereo not drawn) [Example 10-10a, [4-(3′-Methoxy-biphenyl-4-sulfonylamino)-4,5,6,7-tetrahydro-indazol-1-yl]-acetic acid]
10.6 | CN([C@@H]1CCCc2c1cnn2CC(=O)O)S(=O)(=O)c1ccc(Oc2c(F)cccc2F)c(Cl)c1 [Example 9-33a, ((R)-4-{[3-Chloro-4-(2,6-difluoro-phenoxy)-benzenesulfonyl]-methyl-amino}-4,5,6,7-tetrahydro-indazol-1-yl)-acetic acid]
